{
  "source": "patent US7008633B2",
  "about": "(priority 2000, dated 2006)",
  "key": {"[1]": {"conditions": "in vivo, cited from earlier work"}, "[2]": {"experiment": "In vitro slow release of cisplatin from alginate beads", "type": "physicochemical", "conditions": "incubated in PBS at 37° C.", "procedure": "To study in vitro slow release of an anticancer drug from a polymer, the anticancer drug cisplatin and the polymer sodium alginate were tested for slow release of the drug. Cisplatin-loaded alginate beads (SA-CDDP) were formed instantly and then incubated in phosphate-buffered saline (PBS) in tubes at 37° C. Cisplatin was completely released from the alginate beads in 15 hours, which is considerably slower than the release time (within 2.5 hours) of cisplatin powder only (control) (FIG. 1)."}, "[3]": {"experiment": "Blood chemical assay (BUN, serum creatinine) to detect renal toxicity", "type": "in vivo, rat", "conditions": "for BUN / SERUM CREATININE: intratumoral 3 MG/KD, breast tumor-bearing rats", "procedure": "The SA-CDDP (0.1 ml; cisplatin dose was 3 mg/kg body weight) was injected directly into the tumors through 27 G needles. In a preferred embodiment, about […] SA is used per injection. Calcium chloride (8% in water) was then injected into the same place to form cisplatin-loaded alginate beads in the tumors. The tumor size was measured to determine the anticancer effect, and the blood chemical assay (blood urea nitrogen [BUN] and serum creatinine) were performed to detect renal toxicity.\nOn day 40, BUN in five experimental rats and five healthy rats (control) were 18.30±1.51 mg/dl and 17.88±2.24 mg/dl, respectively. There was no statistical significance (p>0.05) between the two. Serum creatinine levels were the same as in both experimental and control rats (0.6 mg/dl)."}, "[4]": {"system": "multiple myeloma", "conditions": "oral administration; cited from earlier work"}, "[5]": {"conditions": "in vivo; cited from earlier work"}},
  "note": "Where a name gives a salt, the structure may show the parent alone. Numbered stars: 1 amine (or outer) side, 2 acyl side, 3 side chain; on linkers, the order of the positions; unused ones are H or OH. Bridge positions count the residues as written; N and C are the ends. Square brackets hold non-standard residues; d marks the D form. Peptide text beside a SMILES is read from it. I, II: the chains in the order shown. Actinocin(9to1) = Cc1c2oc3c(C)ccc(C(=O)[*:1])c3nc-2c(C(=O)[*:2])c(N)c1=O; NMeV = CN[C@H](C(=O)O)C(C)C; Sar = CNCC(=O)O",
  "data": [
    {"smiles": "Cc1c2oc3c(C)ccc(C(=O)N[C@@H]4C(=O)N[C@H](C(C)C)C(=O)N5CCC[C@H]5C(=O)N(C)CC(=O)N(C)[C@@H](C(C)C)C(=O)O[C@@H]4C)c3nc-2c(C(=O)N[C@@H]2C(=O)N[C@H](C(C)C)C(=O)N3CCC[C@H]3C(=O)N(C)CC(=O)N(C)[C@@H](C(C)C)C(=O)O[C@@H]2C)c(N)c1=O", "note": "[Actinomycin D] (I: T[dV]P[Sar][NMeV] / II: T[dV]P[Sar][NMeV]; ester I:1-I:C, II:1-II:C; linker I:N-II:N via Actinocin(9to1))", "values": [
      {"measurement": "share of the dose excreted intact into the bile", "setting": "[1]", "result": "Half of the dose"},
      {"measurement": "share of the dose excreted or detected intact in the urine", "setting": "[1]", "result": 10, "unit": "%"}
    ]},
    {"smiles": "[NH2][Pt]([NH2])([Cl])[Cl]", "note": "[CDDP, cisplatin]", "values": [
      {"measurement": "time to complete release of cisplatin", "setting": "[2]", "result": "≤ 2.5", "unit": "h"},
      {"measurement": "oral absorption", "setting": "[1]; po", "result": "not absorbed orally"},
      {"measurement": "nephrotoxicity", "setting": "[3]; CDDP intratumorally", "result": "a clear nephrotoxicity was observed"},
      {"measurement": "BUN", "setting": "[3]; day 2", "result": 56.21, "unit": "mg/dL"},
      {"measurement": "SERUM CREATININE", "setting": "[3]; day 2", "result": 1.5, "unit": "mg/dL"},
      {"measurement": "BUN", "setting": "[3]; day 5", "result": 246.42, "unit": "mg/dL"},
      {"measurement": "SERUM CREATININE", "setting": "[3]; day 5", "result": 7.03, "unit": "mg/dL"},
      {"measurement": "BUN", "setting": "[3]; day 7", "result": 152.35, "unit": "mg/dL"},
      {"measurement": "SERUM CREATININE", "setting": "[3]; day 7", "result": 2.4, "unit": "mg/dL"},
      {"measurement": "BUN", "setting": "[3]; day 16", "result": 41.75, "unit": "mg/dL"},
      {"measurement": "SERUM CREATININE", "setting": "[3]; day 16", "result": 0.7, "unit": "mg/dL"}
    ]},
    {"smiles": "COc1cccc2c1C(=O)c1c(O)c3c(c(O)c1C2=O)C[C@@](O)(C(C)=O)C[C@@H]3O[C@H]1C[C@H](N)[C@H](O)[C@H](C)O1", "note": "[Daunorubicin, 5,12-Naphthacenedione, (8S-cis)-8-acetyl-10-[(3-amino-2,3,6-trideoxy-a-L-lyxo-hexanopyranosyl)oxy]-7,8,9,10-tetrahydro-6,8,11-trihydroxy-10-methoxy-, hydrochloride]", "values": [
      {"measurement": "oral absorption", "setting": "[1]; po", "result": "Oral absorption is poor"}
    ]},
    {"smiles": "O=NN(CCCl)C(=O)NC1CCCCC1", "note": "[Lomustine, 1-(2-chloro-ethyl)-3-cyclohexyl-1 nitrosourea]", "values": [
      {"measurement": "radioactivity excreted in the form of degradation products", "setting": "[1]; po", "result": "about half"}
    ]},
    {"smiles": "N[C@@H](Cc1ccc(N(CCCl)CCCl)cc1)C(=O)O", "note": "[Melphalan, 4-[bis(2-chloroethyl)amino]-L-phenylalanine]", "values": [
      {"measurement": "share of patients with a favorable response", "setting": "[4]", "result": "about one third to one half"}
    ]},
    {"smiles": "CO[C@@]12[C@H](COC(N)=O)C3=C(C(=O)C(C)=C(N)C3=O)N1C[C@@H]1N[C@@H]12", "note": "[Mitomycin]", "values": [
      {"measurement": "share of a dose excreted unchanged in the urine", "setting": "[5]", "result": "Approximately 10%"}
    ]},
    {"smiles": "CC[C@]1(O)C[C@@H]2CN(CCc3c([nH]c4ccccc34)[C@@](C(=O)OC)(c3cc4c(cc3OC)N(C)[C@H]3[C@@](O)(C(=O)OC)[C@H](OC(C)=O)[C@]5(CC)C=CCN6CC[C@]43[C@@H]65)C2)C1", "note": "[Vinblastine]", "values": [
      {"measurement": "share of the dose excreted or detected intact in the urine", "setting": "[1]", "result": "Approximately 15%"}
    ]}
  ]
}
